Experimental data as given in patent publication US20220372171A1, “ANTIBODY DIRECTED AGAINST TENOFOVIR AND DERIVATIVES THEREOF” (priority 2019, published 2022).

How the values were obtained:
[1] = system: HIV; details: daily doses; subjects at high risk through sexual transmission and drug use; cited from earlier work
[2] = system: HIV; assay: Urine TFV levels by immunoassay and HIV seroconversion (iPrEx-OLE); format: in vivo
Protocol: PrEP was provided to 1,085 men who have sex with men (MSM) and 140 transwomen (Grant et al., Lancet Infect Dis, 14: 820-829 (2014)). Urine was collected every 12 weeks and dried blood spots (DBS) were prepared 4 and 8 weeks after PrEP initiation, and then every 12 weeks. DBS assays for TFV-diphosphate (TFV-DP) and FTC-triphosphate (FTC-TP) were analyzed at all visits for participants who seroconverted in the iPrEx open-label extension (iPrEx-OLE) study and in a random subset of those who remained HIV-negative (Grant et al., supra). Hair samples for TFV and FTC were collected every 12 weeks for all who provided opt-in consent and analyzed among seroconverters and a random subset of those who remained HIV-negative (Gandhi et al., Lancet HIV, 3: e521-e528 (2016)). Participants who qualified for the correlation analysis required sample availability from all three biomatrices (urine, DBS, hair) at one or more visits over the duration of iPrEx-OLE (median 72 weeks). Additional urine samples from seroconverters (n=10) were included in the specific analysis looking at the association between urine TFV levels and seroconversion. All individuals in the study provided informed consent, including for sample storage and further testing, and the institutional review board from each study site approved the study.
The upper limit of quantification for the immunoassay was 50,000 ng/mL. Using previously described and validated LC-MS/MS-based methods, TFV-DP and FTC-TP concentration were measured in DBS (Zheng et al., J Pharm Biomed Anal, 122: 16-20 (2016)), and FTC and TFV concentrations were measured in hair (Liu et al., PLoS One, 9: e83736 (2014)).
For the seroconversion analysis, urine TFV concentrations via the immunoassay were compared using Kruskal-Wallis' test among individuals at the seroconversion visit; prior to the seroconversion visit; and those who remained HIV-negative. Receiver operating curves (ROC) were analyzed to identify two urine TFV cut-points and compared with the outcome of future HIV seroconversion. […] The sensitivity and specificity of the urine assay at an undetectable urine TFV level (<1,000 ng/mL) was compared with two levels of inadequate adherence defined by TFV-DP concentrations in DBS: the limit of quantification (<3.5 fmol/punch) and very low adherence (<350 fmol/punch, estimated average weekly adherence of <2 tablets/week) (Grant et al., Lancet Infect Dis, 14: 820-829 (2014)); and Anderson et al., Antimicrob Agents Chemother, 62: e01710-e01717 (2018)). The lower limit of detection for the urine assay (1,000 ng/mL) was selected as the optimal single cut-off based on analysis of ROC curves and prior data examining LC-MS/MS-based methods to quantify TFV levels in urine (Lalley-Chareczko et al., J Acquir Immune Defic Syndr, 79: 173-178 (2018)).

[3] = system: HIV; assay: Nested case-control analysis: TFV level and protection from HIV acquisition (Partners PrEP Study); format: in vivo
Protocol: (§1) It was hypothesized that TFV concentrations in urine, measured via an immunoassay, would correlate to those in plasma, the gold standard for short-term PrEP adherence in clinical trials, and associated with protection from HIV. To test this hypothesis, TFV levels were measured in stored urine samples collected from a randomly sampled cohort of HIV-negative men and women from the active PrEP arms in the Partners PrEP Study using enzyme-linked immunosorbent assay (ELISA) (lower limit of quantification [LLOQ] of 1000 ng/mL). Date-matched plasma TFV concentrations were measured using liquid chromatography-tandem mass spectrometry (LC-MS/MS) with an LLOQ of 0.31 ng/mL. Using the same cohort and a purposive sample of all HIV seroconverters on PrEP, a case-cohort analysis was conducted to assess the association between recent urine TFV level ≥1500 ng/mL, a threshold previously shown to accurately predict recent PrEP dosing, and protection from HIV. Weighted Cox proportional hazard models were used and adjusted for age, sex, and sexual behavior.
To assess the association between urine TFV concentrations ≥1,500 ng/mL and protection from HIV acquisition, a nested case-control analysis was conducted. Case samples collected on the date of the first evidence of HIV infection (i.e., first positive test for HIV-1 RNA) were matched with control samples collected at the same study visit month. […]

[4] = Plasma TFV concentration by LC-MS/MS, Partners PrEP Study cohort; format: in vivo, human; details: Partners PrEP cohort on TDF or TDF/FTC; IQR=1.6-103.0 ng/mL
Protocol: as §1

[5] = Urine TFV concentration by ELISA, Partners PrEP Study cohort; format: in vivo, human; details: Partners PrEP cohort on TDF or TDF/FTC; IQR=500-90,000 ng/mL
Protocol: as §1

C[C@H](Cn1cnc2c(N)ncnc21)OCP(=O)(O)O [TFV, tenofovir]
reduced incidence of HIV [1]: 48.9%
urinary TFV level at seroconversion ([2]; at seroconversion (n=9), P<0.001, undetectable = <1,000 ng/mL): undetectable
association of decreasing strata of urine TFV levels with HIV seroconversion ([2]; samples prior to seroconversion visit, P=0.03): associated with future HIV seroconversion
median urinary TFV level ([2]; those who eventually seroconverted (n=11), interquartile range 1,000-12,500): 5,500 ng/mL
median urinary TFV level ([2]; those who remained HIV negative (n=105), interquartile range 1,000-45,000): 15,000 ng/mL
reduction in HIV risk associated with plasma TFV >40 ng/mL ([3]; plasma TFV >40 ng/mL by LC-MS/MS, 95% CI=54-96%): 87%
% HIV risk reduction (95% CI) ([3]; urine TFV ≥1500 ng/mL by immunoassay, unadjusted, TDF/FTC or TDF-only PrEP): 73% (36 to 89%)
median TFV concentration in plasma via LC-MS/MS [4]: 65.4 ng/mL
median TFV concentration in urine via ELISA [5]: 37,500 ng/mL
